In patent US20240261414A1, “FATTY ACID AMIDE HYDROLASE (FAAH) CLEAVABLE PRODRUGS OF BRAIN TARGETING ACTIVES AND COMBINATION WITH PERIPHERALLY RESTRICTED FAAH INHIBITORS” (Autobahn Therapeutics, Inc., priority 2021, published 2024):

Target: T1, recombinant human FAAH (rhFAAH) (Homo sapiens, UniProt O00519)
T1 construct: purchased Cayman Chemical (Ann Arbor, MI, USA)
T1 sequence (O00519 1-579): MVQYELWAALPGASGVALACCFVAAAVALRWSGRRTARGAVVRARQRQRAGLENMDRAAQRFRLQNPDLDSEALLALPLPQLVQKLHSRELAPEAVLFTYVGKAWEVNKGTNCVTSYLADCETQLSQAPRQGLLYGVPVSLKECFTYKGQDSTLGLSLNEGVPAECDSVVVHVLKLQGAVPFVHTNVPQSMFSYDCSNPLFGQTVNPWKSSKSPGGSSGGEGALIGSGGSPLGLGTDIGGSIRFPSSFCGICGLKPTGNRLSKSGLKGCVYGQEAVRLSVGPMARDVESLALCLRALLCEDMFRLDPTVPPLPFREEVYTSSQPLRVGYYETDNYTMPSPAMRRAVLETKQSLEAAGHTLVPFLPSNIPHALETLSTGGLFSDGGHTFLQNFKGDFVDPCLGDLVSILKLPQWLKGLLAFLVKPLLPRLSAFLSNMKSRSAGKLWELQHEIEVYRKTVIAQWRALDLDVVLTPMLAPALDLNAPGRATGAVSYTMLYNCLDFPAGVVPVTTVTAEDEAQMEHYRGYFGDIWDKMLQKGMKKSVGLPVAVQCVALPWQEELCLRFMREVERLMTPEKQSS
Assay: FAAH substrate evaluation (acid metabolite formation)
Assay type: biochemical
Settings: 0.5 ng/L rhFAAH, 1 μM test compound, Tris-EDTA buffer pH 8.0, room temperature, 0-60 minutes
Method: Purified recombinant human FAAH (rhFAAH) was purchased from Cayman Chemical (Ann Arbor, MI, USA). The total volume for each incubation was 400 μL containing a final 0.5 ng/L rhFAAH, 1 μM test compound, 1.25% ethanol or 1 μM PF-3845 (FAAH inhibitor), and 0.1% bovine serum albumin in Tris-EDTA buffer at pH 8.0). The positive control was LL-341001. The incubation was conducted at the room temperature. At 0, 5, 15, 30 and 60 minutes, an aliquot of 30 μL reaction mixtures was removed and mixed with 300 μL acetonitrile containing 5 ng/mL terfenadine and 10 ng/mL tolbutamide as internal standards to quench the reaction. The resulting mixture was centrifuged at 4000 rpm, 4° C. for 15 minutes, and 100 μL supernatant was ready for LC-MS/MS analysis to measure the formation of acid metabolite.
Acquity Ultra Performance LC system from Waters was used for sample analysis. The chromatography was performed on a reverse phase Kinetex 2.6 μm C18 column, 2.1×30 mm, 100 Å. The mobile phase A comprised of 0.1% formic acid in water and mobile phase B comprised of 0.1% formic acid in acetonitrile with a 2-min run time at the flow rate of 0.8 mL/min for the acid metabolite from positive control or a 1.5 min run time at the flow rate of 0.9 mL/min for the acid metabolite of test compounds. The mass spectrometer (API-5500 and API Q Trap 4000 Applied Biosystems/MDS SCIEX Instruments, Framingham, MA, USA) was operated under ESI positive or negative ion MRM mode.
The formation of acid metabolite was monitored and quantified using one calibration point of 1 μM. The observed rate constant (ke) for the acid metabolite formation was calculated by plotting the metabolite concentration versus time of incubation with the slope being ke and is shown in Table 2.

Structure (SMILES)	ke (observed rate constant for the acid metabolite formation)
Cc1c(C=CC(=O)Nc2cccnn2)ccc(OCc2cc(Cl)cc3c2OC(C)(C)C3)c1C [Compound 2, 3-(4-((5-chloro-2,2-dimethyl-2,3-dihydrobenzofuran-7-yl)methoxy)-2,3-dimethylphenyl)-N-(pyridazin-3-yl)propenamide]	B (ke is less than 1.0 and more than or equal to 0.1)
Cc1c(CCC(=O)NC2CC2)ccc(OCc2cc(Cl)cc3c2OC(C)(C)C3)c1C [Compound 3, 3-(4-((5-chloro-2,2-dimethyl-2,3-dihydrobenzofuran-7-yl)methoxy)-2,3-dimethylphenyl)-N-cyclopropylpropanamide]	B (ke is less than 1.0 and more than or equal to 0.1)
Cc1c(C=CC(=O)N[C@@H]2C[C@H]2F)ccc(OCc2cc(Cl)cc3c2OC(C)(C)C3)c1C [Compound 4, 3-(4-((5-chloro-2,2-dimethyl-2,3-dihydrobenzofuran-7-yl)methoxy)-2,3-dimethylphenyl)-N-((1R,2R)-2-fluorocyclopropyl)propenamide]	B (ke is less than 1.0 and more than or equal to 0.1)
Cc1c(C=CC(=O)N[C@@H]2C[C@@H]2F)ccc(OCc2cc(Cl)cc3c2OC(C)(C)C3)c1C [Compound 5, 3-(4-((5-chloro-2,2-dimethyl-2,3-dihydrobenzofuran-7-yl)methoxy)-2,3-dimethylphenyl)-N-((1R,2S)-2-fluorocyclopropyl)propenamide]	B (ke is less than 1.0 and more than or equal to 0.1)
Cc1c(C=CC(=O)NCCCF)ccc(OCc2cc(Cl)cc3c2OC(C)(C)C3)c1C [Compound 6, 3-(4-((5-chloro-2,2-dimethyl-2,3-dihydrobenzofuran-7-yl)methoxy)-2,3-dimethylphenyl)-N-(3-fluoropropyl)propenamide]	B (ke is less than 1.0 and more than or equal to 0.1)
Cc1c(C=CC(N)=O)ccc(OCc2cc(Cl)cc3c2OC(C)(C)C3)c1C [Compound 9, 3-(4-((5-chloro-2,2-dimethyl-2,3-dihydrobenzofuran-7-yl)methoxy)-2,3-dimethylphenyl)propenamide]	A (ke is more than or equal to 1.0)
CNC(=O)CCc1ccc(OCc2cc(Cl)cc3c2OC(C)(C)C3)c(C)c1C [Compound 10, 3-(4-((5-chloro-2,2-dimethyl-2,3-dihydrobenzofuran-7-yl)methoxy)-2,3-dimethylphenyl)-N-methylpropanamide]	A (ke is more than or equal to 1.0)
Cc1c(C=CC(=O)NCCO)ccc(OCc2cc(Cl)cc3c2OC(C)(C)C3)c1C [Compound 11, 3-(4-((5-chloro-2,2-dimethyl-2,3-dihydrobenzofuran-7-yl)methoxy)-2,3-dimethylphenyl)-N-(2-hydroxyethyl)propenamide]	A (ke is more than or equal to 1.0)
CCCCC[C@H](O)CC[C@@H]1[C@H]2Cc3cccc(OCC(N)=O)c3C[C@H]2C[C@H]1O [Compound 14]	B (ke is less than 1.0 and more than or equal to 0.1)
O=C(NC1CC1)c1ccc2nc(-c3cc(Cl)cc(Cl)c3)oc2c1 [Compound 15]	D (ke is 0)
CNC(=O)c1ccc2nc(-c3cc(Cl)cc(Cl)c3)oc2c1 [Compound 16]	D (ke is 0)
CCc1cc(/C(C)=N/OCc2ccc(C3CCCCC3)c(C(F)(F)F)c2)ccc1CN1CC(C(=O)NC)C1 [Compound 18]	B (ke is less than 1.0 and more than or equal to 0.1)
CNC(=O)CCSCc1ccc(-c2onc(C)c2NC(=O)O[C@H](C)c2ccccc2Cl)cc1 [Compound 23]	B (ke is less than 1.0 and more than or equal to 0.1)
Cc1noc(-c2ccc(CSCCC(N)=O)cc2)c1NC(=O)O[C@H](C)c1ccccc1Cl [Compound 24]	B (ke is less than 1.0 and more than or equal to 0.1)
COc1ccc(NC(=O)c2ccc(F)c(OCCCc3c(C)n[nH]c3C)c2)cn1 [Compound 29]	B (ke is less than 1.0 and more than or equal to 0.1)
Cc1noc(-c2ccc(NC(=O)CCC(=O)NCCCF)cc2F)c1NC(=O)O[C@H](C)c1ccccc1Cl [Compound 30]	B (ke is less than 1.0 and more than or equal to 0.1)
Cc1c(CCC(=O)Nc2ccncc2)ccc(OCc2cc(Cl)cc3c2OC(C)(C)C3)c1C [Compound 35]	B (ke is less than 1.0 and more than or equal to 0.1)
Cc1n[nH]c(C)c1CCCOc1cc(C(N)=O)ccc1F [Compound 36]	D (ke is 0)
COc1ccc(NC(=O)c2ccc3nc(-c4cc(Cl)cc(Cl)c4)oc3c2)nn1 [Compound 37]	B (ke is less than 1.0 and more than or equal to 0.1)
CCc1cc(/C(C)=N/OCc2ccc(C3CCCCC3)c(C(F)(F)F)c2)ccc1CN1CC(C(=O)NCCCF)C1 [Compound 39]	B (ke is less than 1.0 and more than or equal to 0.1)
Cc1noc(-c2ccc(CSCCC(=O)Nc3cccnn3)cc2)c1NC(=O)O[C@H](C)c1ccccc1Cl [Compound 41]	B (ke is less than 1.0 and more than or equal to 0.1)

More lines, now with the values ahead:

ke (observed rate constant for the acid metabolite formation)	Structure (SMILES)
A (ke is more than or equal to 1.0)	Cc1c(C=CC(=O)Nc2ccncc2)ccc(OCc2cc(Cl)cc3c2OC(C)(C)C3)c1C [Compound 7, 3-(4-((5-chloro-2,2-dimethyl-2,3-dihydrobenzofuran-7-yl)methoxy)-2,3-dimethylphenyl)-N-(pyridin-4-yl)propenamide]
C (ke is less than 0.1 and more than 0)	CCCCC[C@H](O)CC[C@@H]1[C@H]2Cc3cccc(OCC(=O)NC4CC4)c3C[C@H]2C[C@H]1O [Compound 12]
D (ke is 0)	CCCCC[C@H](O)CC[C@@H]1[C@H]2Cc3cccc(OCC(=O)NC)c3C[C@H]2C[C@H]1O [Compound 13]
A (ke is more than or equal to 1.0)	CCc1cc(/C(C)=N/OCc2ccc(C3CCCCC3)c(C(F)(F)F)c2)ccc1CN1CC(C(=O)NCCO)C1 [Compound 17]
D (ke is 0)	CCc1cc(/C(C)=N/OCc2ccc(C3CCCCC3)c(C(F)(F)F)c2)ccc1CN1CC(C(N)=O)C1 [Compound 19]
D (ke is 0)	CNC(=O)C[C@H]1CCc2c1[nH]c1ccc(OCc3ccc(C4CCCC4)c(C(F)(F)F)c3)cc21 [Compound 21]
D (ke is 0)	CCc1cc(/C(C)=N/OCc2ccc(C3CCCCC3)c(C(F)(F)F)c2)ccc1CN1CC(C(=O)NC2CC2F)C1 (stereo not shown) [Compound 28]
D (ke is 0)	Cc1noc(-c2ccc(NC(=O)CCC(=O)NC3CC3)cc2F)c1NC(=O)O[C@H](C)c1ccccc1Cl [Compound 31]
C (ke is less than 0.1 and more than 0)	O=C(C[C@H]1CCc2c1[nH]c1ccc(OCc3ccc(C4CCCC4)c(C(F)(F)F)c3)cc21)NC1CC1F (stereo partly shown) [Compound 32]
D (ke is 0)	Cc1noc(-c2ccc(CSCCC(=O)NC3CC3)cc2)c1NC(=O)OC(C)c1ccccc1Cl (stereo not shown) [Compound 33]
D (ke is 0)	Cc1noc(NC(=O)CCSCc2ccc(-c3onc(C)c3NC(=O)OC(C)c3ccccc3Cl)cc2)c1C (stereo not shown) [Compound 34]
A (ke is more than or equal to 1.0)	CCc1cc(/C(C)=N/OCc2ccc(C3CCCCC3)c(C(F)(F)F)c2)ccc1CN1CC(C(=O)Nc2ccncc2)C1 [Compound 38]
C (ke is less than 0.1 and more than 0)	Cc1noc(-c2ccc(CSCCC(=O)N[C@@H]3C[C@H]3F)cc2)c1NC(=O)OC(C)c1ccccc1Cl (stereo partly shown) [Compound 40]
